Measured values published in patent publication US20260048060A1, “POLYCYCLIC THYROID HORMONE b RECEPTOR AGONIST AND USE THEREOF” (CASCADE PHARMACEUTICALS, INC., priority 2022, published 2026).

Experiments:
THRβ [1] = target: T1, THRβ (Homo sapiens, UniProt P10828); test: Time-resolved FRET (THR-FRET) agonist activity assay, GST-tagged THRβ LBD with SRC2 polypeptide; assay type: biochemical; details: ratio of THR-FRET EC50 values THRα/THRβ
T1 construct: made in house; host or cells: E. coli BL21 (DE3)
T1 sequence (P10828 217-461 limits assumed): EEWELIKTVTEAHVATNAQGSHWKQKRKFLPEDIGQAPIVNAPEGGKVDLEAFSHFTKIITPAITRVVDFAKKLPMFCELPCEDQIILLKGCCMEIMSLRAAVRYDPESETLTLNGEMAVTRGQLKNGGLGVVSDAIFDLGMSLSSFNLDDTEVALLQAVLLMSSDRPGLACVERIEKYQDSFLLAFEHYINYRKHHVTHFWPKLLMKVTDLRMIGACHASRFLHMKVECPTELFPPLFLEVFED
Description: Experimental Example 2: Detection of Agonist Activities of Compounds Against THRα/β Based on Time-Resolved Fluorescence Resonance Energy Transfer (THR-FRET)
By visiting NCBI, the THRα/β LBD domain sequences were found. The pET21-His-GST-dLBT-THRα LBD and pET21-His-GST-dLBT-THRβ LBD overexpression vectors were constructed by the fusion method, and sequenced to confirm the accuracy of the sequences.
The correctly sequenced THRα LBD and THRβ LBD overexpression vectors were transfected into E. coli cells BL21 (DE3), and spread on an agar plate with ampicillin. Monoclones were picked out and amplified in an LB medium, and transferred into 1 L LB at a ratio of 1:100 for large-scale culture. When the OD value was at 0.8 to 1.2, 0.5 mM isopropyl-beta-D-thiogalactopyranoside (IPTG) was added, and induced overnight at 18° C. The bacteria were harvested, disrupted, and purified via the GST column and the molecular sieve to obtain two proteins His-GST-dLBT-THRα LBD and His-GST-dLBT-THRβ LBD.
The proteins were taken out from a refrigerator at −80° C. The proteins with the GST-tagged THRα/β LBD domain and the Eu-labelled GST antibodies were thawed slowly on ice, and an assay buffer containing a final concentration of 5 mM dithiothreitol (DTT) was formulated.
The starting concentration of the compound was 100 μM (in DMSO). The compound (100 μM in DMSO) was subjected to 3-fold isogradient dilution with DMSO to obtain a total of 11 isogradient concentrations. Subsequently, the above compounds at the isogradient concentration were further subjected to 50-fold dilution with an assay buffer containing 5 mM DTT.
The final concentrations of all components were calculated based on a system with a final volume of 20 μL per well. To 18 μL of assay buffer containing 5 mM DTT, the GST-tagged THRα/β proteins, the SRC2 ([…]) polypeptide, XL665 (Cisobio, #610SAXLB), and the Eu-labeled GST antibody were added, and the final concentrations were 2 nM, 200 nM, 0.05 nM, and 7.6 nM respectively to formulate 18 μL of reaction mixture of the proteins, polypeptide, and antibody per well.
18 μL of reaction mixture and 2 μL of diluted compound were added into an optiplate-384-well plate, and reacted at room temperature for 24 h.
The plate was read using an MD i3X multi-mode microplate reader with the excitation and emission wavelengths of 340 nm and 665 nm, respectively. The intensity of light at a wavelength of 616 nm generated by europium excited by 340 nm wavelength light from the MD i3X multi-mode microplate reader was used as the background. According to the different activation degrees of different compounds against THRα and THRβ, the intensity of the emission light at a wavelength of 665 nm generated by exciting XL665 with the exciting light at a wavelength of 616 nm was varied. The intensity ratio between these two light wavelengths (665 nm, 616 nm) was used as the activation activity of the compound against THRα or THRβ, and the ratio in the solvent DMSO group was used for normalization. The dose-response curve was fitted with four parameters using the GraphPad Prism 6.0 software, and the EC50 value was calculated.

THRβ [2] = target: T2, THRβ (Homo sapiens, UniProt P10828); test: Reporter gene (GAL4-THRβ-LBD / Dual-Glo luciferase) agonist activity assay in HEK293T cells; assay type: cell-based; details: ratio of reporter gene EC50 values THRα/THRβ
T2 construct: expressed in transfected cells; host or cells: HEK293T
T2 sequence (P10828 217-461): T1 sequence (P10828 217-461 limits assumed)
Description: Experimental Example 1: Detection of THRα and THRβ Agonist Activities of Compounds Based on Reporter Gene Activity Assay Method
1.1 Construction and Preparation of Plasmids pGAL4-THR-LBD and pG5-Luc
The pGAL4-THRα-LBD and pGAL4-THRβ-LBD plasmids used in the reporter gene assay system were constructed by a conventional molecular cloning method comprising the following main steps: the cDNA sequences of THRα (NM_003250) and THRβ (NM_000461) corresponding to the amino acid sequences of THRα (163-407AA) and THRβ (217-461AA) were inserted into the BamHI and NotI enzyme digestion sites of the pGAL4 vector by the PCR technique respectively to obtain the pGAL4-THRα-LBD and pGAL4-THRβ-LBD plasmids; the pG5-Luc (#E249A) and pRL-TK (#E2241) plasmids were purchased from Promega; the plasmids were transfected into the E. coli DH5α by the CaCl2 method, and after further culture and amplification, the plasmids were purified by Plasmid Extraction Kits (TIANGEN, #D107) to obtain the corresponding plasmid DNAs.
1.2 Co-Transfection of Plasmids into HEK293T Cells and Treatment with Compounds
The HEK293T cells were inoculated into a 96-well plate at a density of 1×10^4/well the day before plasmid transfection. Cell transfection was conducted according to the instructions of the transfection reagent FuGENE® HD (Promega, #E2311). The main steps were as follows: taking one well as an example here, the plasmids pGAL4-THRα-LBD or pGAL4-THRβ-LBD, pG5-Luc, and pRL-TK were added in the proportions of 20 ng, 50 ng, and 5 ng to 10 μL of Opti-MEM™ I medium (Gibco, #11058021) and mixed well; subsequently, 0.25 uL of FuGENE® HD was added, mixed well, and then left at room temperature for 5 min; afterwards, 10 μL of the mixture was added to the cell wells containing 100 μL of culture medium. After cell co-transfection for 6 h, the compound was diluted in a 3-fold gradient with dimethyl sulfoxide at the highest concentration of 1 uM. The compound was added to the cell culture medium at a total of 10 concentrations for treatment for 24 h. There were a total of two duplicate wells for each concentration. Triiodothyronine (T3) was used as the positive control.
1.3 Dual-Glo Luciferase Assay
After the cells were treated with the compound for 24 h, the cells were assayed according to the instructions of Dual-Glo® Luciferase Assay System (Promega, #E2940). The main steps were as follows: 50 μL of culture medium was aspirated from each well and discarded, and then 50 μL of Dual-Glo® Luciferase reagent was added and oscillated at room temperature for 10 min; 80 μL of lysis reaction solution was measured into a white opaque optiPlate-96-well plate, and the luminescence signal value (Firefly-Luc) of the Firefly luciferase was detected using an MD i3x multi-mode microplate reader; 40 μL of Dual-Glo® Stop & Glo® reagent was then added, and oscillated at room temperature for 10 min; the luminescence signal value (Renilla-Luc) of the Renilla luciferase was then detected using an MD i3x multi-mode microplate reader. The Firefly-Luc/Renilla-Luc ratio was used as the activation activity of the compound against THR, and the ratio in the solvent DMSO group was used for normalization; the dose-response curve was fitted with four parameters using the GraphPad Prism6.0 software, and the EC50 value was calculated.

Row | Selectivity (THRα/THRβ) (THRβ [1]) | Selectivity (THRα/THRβ) (THRβ [2]) | SMILES
1 | †† (††: 10 ≥ THRα/β;) |  | N#Cc1nn(-c2cc(Cl)c(COc3ccccc3C(N)=O)c(Cl)c2)c(=O)[nH]c1=O [Compound 1]
2 | †† (††: 10 ≥ THRα/β;) |  | CNC(=O)c1ccccc1OCc1c(Cl)cc(-n2nc(C#N)c(=O)[nH]c2=O)cc1Cl [Compound 2]
3 | ††† (†††: 20 ≥ THRα/β > 10;) |  | N#Cc1nn(-c2cc(Cl)c(CSc3ccccc3C(=O)O)c(Cl)c2)c(=O)[nH]c1=O [Compound 6]
4 | ††† (†††: 20 ≥ THRα/β > 10;) |  | CNC(=O)c1ccccc1SCc1c(Cl)cc(-n2nc(C#N)c(=O)[nH]c2=O)cc1Cl [Compound 7]
5 | †† (††: 10 ≥ THRα/β;) |  | CNC(=O)c1ccccc1NCc1c(Cl)cc(-n2nc(C#N)c(=O)[nH]c2=O)cc1Cl [Compound 9]
6 | ††† (†††: 20 ≥ THRα/β > 10;) |  | N#Cc1nn(-c2cc(Cl)c(CNc3ccccc3C(=O)O)c(Cl)c2)c(=O)[nH]c1=O [Compound 10]
7 | †† (††: 10 ≥ THRα/β;) |  | N#Cc1nn(-c2cc(Br)c(COc3ccccc3C(N)=O)c(Br)c2)c(=O)[nH]c1=O [Compound 11]
8 | †† (††: 10 ≥ THRα/β;) |  | CNC(=O)c1ccccc1OCc1c(Br)cc(-n2nc(C#N)c(=O)[nH]c2=O)cc1Br [Compound 12]
9 | †† (††: 10 ≥ THRα/β;) |  | CNC(=O)c1ccccc1SCc1c(Br)cc(-n2nc(C#N)c(=O)[nH]c2=O)cc1Br [Compound 13]
10 | †† (††: 10 ≥ THRα/β;) | † (†: 5 ≥ THRα/β;) | NC(=O)c1ccccc1OCc1c(Cl)cc(-n2ncc(=O)[nH]c2=O)cc1Cl [Compound 14]
11 | †† (††: 10 ≥ THRα/β;) | † (†: 5 ≥ THRα/β;) | CNC(=O)c1ccccc1OCc1c(Cl)cc(-n2ncc(=O)[nH]c2=O)cc1Cl [Compound 17]
12 | ††† (†††: 20 ≥ THRα/β > 10;) |  | O=C(O)c1ccccc1SCc1c(Cl)cc(-n2ncc(=O)[nH]c2=O)cc1Cl [Compound 18]
13 | ††† (†††: 20 ≥ THRα/β > 10;) |  | NC(=O)c1ccccc1SCc1c(Cl)cc(-n2ncc(=O)[nH]c2=O)cc1Cl [Compound 19]
14 | ††† (†††: 20 ≥ THRα/β > 10;) |  | CNC(=O)c1ccccc1SCc1c(Cl)cc(-n2ncc(=O)[nH]c2=O)cc1Cl [Compound 20]
15 | ††† (†††: 20 ≥ THRα/β > 10;) |  | CC(C)NC(=O)c1ccccc1SCc1c(Cl)cc(-n2ncc(=O)[nH]c2=O)cc1Cl [Compound 22]
16 | †† (††: 10 ≥ THRα/β;) |  | CCNC(=O)c1ccccc1SCc1c(Cl)cc(-n2ncc(=O)[nH]c2=O)cc1Cl [Compound 24]
17 | ††† (†††: 20 ≥ THRα/β > 10;) | † (†: 5 ≥ THRα/β;) | CNC(=O)c1ccccc1SCc1c(Br)cc(-n2ncc(=O)[nH]c2=O)cc1Br [Compound 25]
18 | ††† (†††: 20 ≥ THRα/β > 10;) |  | O=C(O)c1ccccc1NCc1c(Cl)cc(-n2ncc(=O)[nH]c2=O)cc1Cl [Compound 26]
19 | ††† (†††: 20 ≥ THRα/β > 10;) | † (†: 5 ≥ THRα/β;) | CNC(=O)c1ccccc1SCc1c(Cl)cc(-n2nc(N)c(=O)[nH]c2=O)cc1Cl [Compound 29]
20 | ††† (†††: 20 ≥ THRα/β > 10;) |  | Cc1ccc(C(N)=O)c(OCc2c(Cl)cc(-n3ncc(=O)[nH]c3=O)cc2Cl)c1 [Compound 33]
21 | †† (††: 10 ≥ THRα/β;) | †† (††: 10 ≥ THRα/β > 5;) | NC(=O)c1ccccc1OCc1c(Br)cc(-n2ncc(=O)[nH]c2=O)cc1Br [Compound 38]
22 | †† (††: 10 ≥ THRα/β;) |  | O=C(NO)c1ccccc1OCc1c(Cl)cc(-n2ncc(=O)[nH]c2=O)cc1Cl [Compound 42]
23 | †† (††: 10 ≥ THRα/β;) | † (†: 5 ≥ THRα/β;) | NC(=O)c1sccc1OCc1c(Cl)cc(-n2ncc(=O)[nH]c2=O)cc1Cl [Compound 45]
24 | †† (††: 10 ≥ THRα/β;) | † (†: 5 ≥ THRα/β;) | CNC(=O)c1ccccc1OCc1c(Cl)cc(-n2nc(C(F)F)c(=O)[nH]c2=O)cc1Cl [Compound 53]
25 | †† (††: 10 ≥ THRα/β;) | † (†: 5 ≥ THRα/β;) | NC(=O)c1ccccc1OCc1c(Cl)cc(-n2nc(C(F)F)c(=O)[nH]c2=O)cc1Cl [Compound 54]
26 | †† (††: 10 ≥ THRα/β;) |  | CNC(=O)c1ccccc1SCc1c(Cl)cc(-n2nc(C(F)F)c(=O)[nH]c2=O)cc1Cl [Compound 55]
27 | ††† (†††: 20 ≥ THRα/β > 10;) | † (†: 5 ≥ THRα/β;) | COc1ccc(OCc2c(Cl)cc(-n3ncc(=O)[nH]c3=O)cc2Cl)c(C(N)=O)c1 [Compound 69]
28 | †† (††: 10 ≥ THRα/β;) | † (†: 5 ≥ THRα/β;) | [2H]C(Oc1ccccc1C(=O)NC)c1c(Br)cc(-n2nc(C(F)F)c(=O)[nH]c2=O)cc1Br (centres unmarked) [Compound 106]
29 | †† (††: 10 ≥ THRα/β;) | † (†: 5 ≥ THRα/β;) | [2H]C(F)(F)c1nn(-c2cc(Br)c(COc3ccccc3C(=O)NC)c(Br)c2)c(=O)[nH]c1=O [Compound 107]
30 | †† (††: 10 ≥ THRα/β;) |  | CNC(=O)c1ccccc1Oc1c(Cl)cc(-n2ncc(=O)[nH]c2=O)cc1Cl [Compound 114, reference compound]
